Assays:
[1] = Toxicity in human T cells derived from human PBMC assessed as early apoptotic cells at 0.1 uM measured for 48 hrs by annexin V-FITC and PI staining based flow cytometry analysis (reference value: 6.75 to 8.22 %); details: t-cell
[2] = system: AHH-1; assay: Induction of cell cycle arrest in human AHH-1 cells assessed as accumulation of cells at G1 phase at 1000 nM incubated for 72 hrs by annexin V-FITC and PI staining based flow cytometry analysis; format: functional
[3] = Toxicity in human T cells derived from human PBMC assessed as viable cells at 2.5 uM measured for 72 hrs by annexin V-FITC and PI staining based flow cytometry analysis (reference value: 66.5 to 77.5 %); format: cell-based, T-cell; details: read-out: Activity
[4] = system: AHH-1; assay: Induction of cell cycle arrest in human AHH-1 cells assessed as accumulation of cells at G2/M phase at 100 nM incubated for 72 hrs by annexin V-FITC and PI staining based flow cytometry analysis; format: functional
[5] = system: Maver1; assay: Antiproliferative activity against human MAVER-1 cells assessed as inhibition of cell growth measured for 72 hrs by MTT assay; format: functional, cell-based; details: Maver1, 72 h
[6] = Toxicity in human T cells derived from human PBMC assessed as late apoptotic cells at 1 uM measured for 48 hrs by annexin V-FITC and PI staining based flow cytometry analysis (reference value: 13.5 to […] %); details: t-cell
[7] = Toxicity in NOD/SCID mouse assessed as reduction in body condition score at 100 mg/kg, po administered for 5 days; format: organism-based; details: in vivo, 120 h, time 5 day
[8] = Toxicity in human T cells derived from human PBMC assessed as necrotic cells at 1 uM measured for 72 hrs by annexin V-FITC and PI staining based flow cytometry analysis (reference value: 0.48 to 0.56 %); details: t-cell
[9] = system: TMD8; assay: Antiproliferative activity against human TMD8 cells assessed as inhibition of cell growth measured for 72 hrs by MTT assay; format: functional, cell-based; details: TMD8, 72 h
[10] = system: HeLa; assay: Induction of cell cycle arrest in human HeLa cells assessed as accumulation of cells at G2/M phase at 1000 nM incubated for 72 hrs by annexin V-FITC and PI staining based flow cytometry analysis; format: functional
[11] = Toxicity in human T cells derived from human PBMC assessed as late apoptotic cells at 1 uM measured for 72 hrs by annexin V-FITC and PI staining based flow cytometry analysis (reference value: 11.5 to 17.6%); details: t-cell
[12] = Toxicity in human T cells derived from human PBMC assessed as viable cells at 2.5 uM measured for 48 hrs by annexin V-FITC and PI staining based flow cytometry analysis (reference value: 77.5 to 79.5 %); format: cell-based, T-cell; details: read-out: Activity
[13] = system: TERT-RPE1; assay: Induction of cell cycle arrest in human TERT-RPE1 cells assessed as accumulation of cells at S phase at 100 nM incubated for 72 hrs by annexin V-FITC and PI staining based flow cytometry analysis; format: functional
[14] = system: TMD8; assay: Antitumor activity against human TMD8 cells xenografted in NOD/SCID mouse assessed as reduction in tumor volume at 100 mg/kg, po administered for 5 days and measured on day 6; format: functional; details: time 6 day
[15] = system: AHH-1; assay: Induction of apoptosis in human AHH-1 cells at 1000 to 2500 nM measured after 72 hrs by annexin V-FITC and PI staining based flow cytometry analysis; format: functional; details: dose 1000-2500 nM
[16] = Toxicity in human T cells derived from human PBMC assessed as necrotic cells at 0.1 uM measured for 48 hrs by annexin V-FITC and PI staining based flow cytometry analysis (reference value: 0.31 to 0.48 %); details: t-cell
[17] = system: AHH-1; assay: Antiproliferative activity against human AHH-1 cells assessed as inhibition of cell growth measured for 48 hrs by MTT assay; format: functional, cell-based; details: AHH-1, 48 h
[18] = Toxicity in NOD/SCID mouse assessed as tolerability at 100 mg/kg, po administered for 5 days; format: organism-based; details: in vivo, 120 h, time 5 day
[19] = system: HeLa; assay: Induction of cell cycle arrest in human HeLa cells assessed as accumulation of cells at S phase at 100 nM incubated for 72 hrs by annexin V-FITC and PI staining based flow cytometry analysis; format: functional
[20] = system: TMD8; assay: Antitumor activity against human TMD8 cells xenografted in NOD/SCID mouse assessed as reduction in tumor volume at 100 mg/kg, po administered for 5 days and measured on day 13; format: functional; details: time 13 day
[21] = biological target: Tubulin; assay: Inhibition of tubulin polymerization (unknown origin) incubated for 20 mins in presence of GTP by spectrophotometric analysis; format: protein-complex assay, Homo sapiens
[22] = system: Farage; assay: Antiproliferative activity against human Farage cells assessed as inhibition of cell growth measured for 72 hrs by MTT assay; format: functional, cell-based
[23] = biological target: Tubulin (Homo sapiens) (UniProt P68371+Q9H4B7+P0DPH7+P68366+Q13509+Q71U36+P04350+Q3ZCM7+P07437+P68363+Q9BQE3+Q6PEY2+Q13885+Q9BVA1+Q9BUF5); assay: Inhibition of [3H]colchicine binding to tubulin (unknown origin) at 1 to 5 uM relative to control; format: protein-complex assay; details: dose 1-5 µM
[24] = Toxicity in human T cells derived from human PBMC assessed as necrotic cells at 2.5 uM measured for 72 hrs by annexin V-FITC and PI staining based flow cytometry analysis (reference value: 0.48 to 0.56 %); details: t-cell
[25] = system: TERT-RPE1; assay: Induction of cell cycle arrest in human TERT-RPE1 cells assessed as accumulation of cells at G1 phase at 1000 nM incubated for 72 hrs by annexin V-FITC and PI staining based flow cytometry analysis; format: functional
[26] = Toxicity in human T cells derived from human PBMC assessed as viable cells at 0.1 uM measured for 72 hrs by annexin V-FITC and PI staining based flow cytometry analysis (reference value: 66.5 to 77.5 %); format: cell-based, T-cell; details: read-out: Activity
[27] = system: Z-138; assay: Antiproliferative activity against human Z138 cells assessed as inhibition of cell growth measured for 72 hrs by MTT assay; format: functional, cell-based; details: Z-138, 72 h
[28] = Toxicity in human T cells derived from human PBMC assessed as viable cells at 1 uM measured for 48 hrs by annexin V-FITC and PI staining based flow cytometry analysis (reference value: 77.5 to 79.5 %); format: cell-based, T-cell; details: read-out: Activity
[29] = Metabolic stability in mouse liver microsome assessed as half life measured upto 60 mins by LC-MS/MS analysis; format: ADME; details: liver microsomes
[30] = system: TERT-RPE1; assay: Antiproliferative activity against human TERT-RPE1 cells assessed as inhibition of cell growth measured for 48 hrs by MTT assay; format: functional, cell-based; details: RPE-1, 48 h
[31] = system: HeLa; assay: Induction of cell cycle arrest in human HeLa cells assessed as accumulation of cells at G1 phase at 2500 nM incubated for 72 hrs by annexin V-FITC and PI staining based flow cytometry analysis; format: functional
[32] = Toxicity in human T cells derived from human PBMC assessed as early apoptotic cells at 1 uM measured for 72 hrs by annexin V-FITC and PI staining based flow cytometry analysis (reference value: 9.70 to […]); details: t-cell
[33] = Toxicity in human T cells derived from human PBMC assessed as late apoptotic cells at 2.5 uM measured for 72 hrs by annexin V-FITC and PI staining based flow cytometry analysis (reference value: 11.5 to 17.6%); details: t-cell

IC50 [21]: 280 nM | inhibition [23]: 85% | half-life [29]: 14.7 min
Compound: COc1cc(C(=O)c2ccn(-c3ncnc4[nH]ccc34)c2)cc(OC)c1OC
Activity [1]: 5.88% | Activity [2]: 9.5% | viability at 72 h, 2.5 µM [3]: 64.3% | Activity [4]: 32% | IC50 [5]: 63.1 nM | Activity [6]: 12.7% | Activity [7]: Non-Toxic | Activity [8]: 0.41% | IC50 [9]: 21.6 nM | Activity [10]: 33.8% | Activity [11]: 12% | viability at 48 h, 2.5 µM [12]: 72.7% | Activity [13]: 2.3% | Activity [14]: 407 mm3 | Activity [15]: 80% | Activity [16]: 0.28% | IC50 [17]: 16.3 nM | Activity [18]: Non-Toxic | Activity [19]: 43.2% | Activity [20]: 354 mm3 | IC50 [22]: 17.6 nM | Activity [24]: 0.14% | Activity [25]: 13.3% | viability at 72 h, 0.1 µM [26]: 68.1% | IC50 [27]: 23.6 nM | viability at 48 h, 1 µM [28]: 74.9% | IC50 [30]: 101 nM | Activity [31]: 17% | Activity [32]: 11.6% | Activity [33]: 12.7%

From ChEMBL document CHEMBL5352470, “RS6077 induces mitotic arrest and selectively activates cell death in human cancer cell lines and in a lymphoma tumor in vivo” (Eur J Med Chem, 2023)
